The values below come from ChEMBL document CHEMBL3865807, “Syntheses and photodynamic activity of some glucose-conjugated BODIPY dyes” (Eur J Med Chem, 2016).

This data set in a line: Drug uptake in human L-132 cells assessed as mean fluorescence intensity at 2.5 uM after 8 hrs by flow cytometry (reference value: 4.6 +/- 1.2). Format: ADME, cell-based. The following applies: l132, 8 h. On the technique in general: Flow cytometry measures light scatter and fluorescence of single cells or particles in a stream.

SMILES strings stand for the structures.

For `CCC1=C(C)C2=C(C)c3c(C)c(CC)c(C)n3[B-](F)(F)[N+]2=C1/C=C/c1ccc(O[C@H]2O[C@H](CO)[C@@H](O)[C@H](O)[C@H]2O)cc1`, the Flu intensity came to 49.5.
